This is an account of results in patent US20170101383A1, “DIAMINOTRIAZINE DERIVATIVES AS HERBICIDES” (BASF SE, priority 2014, published 2017).

In assay [1] the test system is Amaranthus retroflexus. The experiment in a line: greenhouse pre-emergence treatment, AMARE. Type of assay: in vivo. Conditions: scale 0 to 100. From the text:
(§1) The seeds of the test plants were sown separately for each species. For the pre-emergence treatment, the active ingredients, which had been suspended or emulsified in water, were applied directly after sowing by means of finely distributing nozzles. The containers were irrigated gently to promote germination and growth and subsequently covered with transparent plastic hoods until the plants had rooted. This cover caused uniform germination of the test plants, unless this had been impaired by the active ingredients. Depending on the species, the plants were kept at 10-25° C. or 20-35° C., respectively. The test period extended over 2 to 4 weeks. During this time, the plants were tended, and their response to the individual treatments was evaluated. Evaluation was carried out using a scale from 0 to 100. 100 means no emergence of the plants, or complete destruction of at least the aerial moieties, and 0 means no damage, or normal course of growth. A moderate herbicidal activity is given at values of at least 60, a good herbicidal activity is given at values of at least 70, and a very good herbicidal activity is given at values of at least 85. The plants used in the greenhouse experiments were of the following species: [table]

The subject of assay [2] is Alopecurus myosuroides. The experiment in a line: greenhouse pre-emergence treatment, ALOMY. The assay is classed as in vivo. Particulars: scale 0 to 100.
Text: as §1

For assay [3], the system named is Echinocloa crus-galli. The experiment in a line: greenhouse post-emergence treatment, ECHCG. Type of assay: in vivo. Conditions: scale 0 to 100. The source says:
(§2) The seeds of the test plants were sown separately for each species. For the post-emergence treatment, the test plants were first grown to a height of 3 to 15 cm, depending on the plant habit, and only then treated with the active ingredients which had been suspended or emulsified in water. For this purpose, the test plants were either sown directly and grown in the same containers, or they were first grown separately as seedlings and transplanted into the test containers a few days prior to treatment. Depending on the species, the plants were kept at 10-25° C. or 20-35° C., respectively. The test period extended over 2 to 4 weeks. During this time, the plants were tended, and their response to the individual treatments was evaluated. Evaluation was carried out using a scale from 0 to 100. 100 means no emergence of the plants, or complete destruction of at least the aerial moieties, and 0 means no damage, or normal course of growth. A moderate herbicidal activity is given at values of at least 60, a good herbicidal activity is given at values of at least 70, and a very good herbicidal activity is given at values of at least 85. The plants used in the greenhouse experiments were of the following species: [table]

For assay [4], the system named is Setaria viridis. The experiment in a line: greenhouse post-emergence treatment, SETVI. The assay is classed as in vivo. Conditions: 0.500 kg/ha, scale 0 to 100.
Text: as §2

For assay [5], the system named is Polygonum convolvulus. The experiment in a line: greenhouse post-emergence treatment, POLCO. Type of assay: in vivo. Conditions: 0.500 kg/ha, scale 0 to 100.
Text: as §2

The test system of assay [6] is Apera spica-venti. The experiment in a line: greenhouse pre-emergence treatment, APESV. The assay is classed as in vivo. Particulars: scale 0 to 100.
Text: as §1

For assay [7] the following is noted: known from Archiv der Pharmazie, 1984, Vol. 317, S. 754; cited from earlier work.
For assay [8], the system named is Stellaria media. The experiment in a line: greenhouse pre-emergence treatment, STEME. Type of assay: in vivo. Conditions: 0.500 kg/ha, scale 0 to 100.
Text: as §1

Assay [9] relates to Lamium purpureum. The experiment in a line: greenhouse pre-emergence treatment, LAMPU. Type of assay: in vivo. Conditions: 0.500 kg/ha, scale 0 to 100.
Text: as §1

The subject of assay [10] is Viola arvensis. The experiment in a line: greenhouse pre-emergence treatment, VIOAR. Type of assay: in vivo. Conditions: 0.500 kg/ha, scale 0 to 100.
Text: as §1

In assay [11] the test system is Setaria faberi. The experiment in a line: greenhouse post-emergence treatment, SETFA. Type of assay: in vivo. Particulars: scale 0 to 100.
Text: as §2

For assay [12], the system named is Amaranthus retroflexus. The experiment in a line: greenhouse post-emergence treatment, AMARE. The assay is classed as in vivo. Conditions: Amaranthus retroflexus, scale 0 to 100, read-out: herbicidal activity against AMARE; for pest or weed control at 500 g/ha: 0.500 kg/ha.
Text: as §2

Assay [13] deals with Setaria faberi. The experiment in a line: greenhouse pre-emergence treatment, SETFA. Type of assay: in vivo. Conditions: scale 0 to 100.
Text: as §1

For assay [14], the system named is Echinocloa crus-galli. The experiment in a line: greenhouse pre-emergence treatment, ECHCG. Type of assay: in vivo. Conditions: scale 0 to 100.
Text: as §1

In assay [15] the test system is Abutilon theophrasti. The experiment in a line: greenhouse post-emergence treatment, ABUTH. The assay is classed as in vivo. Conditions: 0.500 kg/ha, scale 0 to 100.
Text: as §2

Assay [16] deals with Abutilon theophrasti. The experiment in a line: greenhouse pre-emergence treatment, ABUTH. The assay is classed as in vivo. Conditions: 0.500 kg/ha, scale 0 to 100.
Text: as §1

Assay [17] deals with Stellaria media. The experiment in a line: greenhouse post-emergence treatment, STEME. Type of assay: in vivo. Particulars: 0.500 kg/ha, scale 0 to 100.
Text: as §2

In assay [18] the test system is Viola arvensis. The experiment in a line: greenhouse post-emergence treatment, VIOAR. The assay is classed as in vivo. Particulars: 0.500 kg/ha, scale 0 to 100.
Text: as §2

Turning to `COc1nc(N)nc(Nc2c(F)c(F)c(F)c(F)c2F)n1` [Example 2, 6-methoxy-N2-(2,3,4,5,6-pentafluorophenyl)-1,3,5-triazine-2,4-diamine], the “herbicidal activity against AMARE” value in assay [1] (0.125 kg/ha) was “good to very good”. Further, the “herbicidal activity against ALOMY” value in assay [2] (0.125 kg/ha) was “good to very good”. For the same compound, the “herbicidal activity against ECHCG” value in assay [3] (0.500 kg/ha) is listed as “very good (a very good herbicidal activity is given at values of at least 85)”. In addition, in assay [4], the “herbicidal activity against SETVI” value is recorded as “very good (a very good herbicidal activity is given at values of at least 85)”. The “herbicidal activity against POLCO” value in assay [5] is on record as “very good (a very good herbicidal activity is given at values of at least 85)”. Also, the “herbicidal activity against APESV” value in [6] (0.125 kg/ha) is “good to very good”.

Regarding `CC(C)Nc1nc(Nc2ccccc2F)nc(NC(C)C)n1` [N6-(2-fluorophenyl)-N2,N4-diisopropyl-1,3,5-triazine-2,4,6-triamine], the trichomonacidal activity entry in assay [7] is given as “shows trichomonacidal activity”.

In the case of `COc1nc(N)nc(Nc2c(F)c(F)cc(F)c2F)n1` [Example 4], in [8], the “herbicidal activity against STEME” value is on record as “very good (a very good herbicidal activity is given at values of at least 85)”. Further, the “herbicidal activity against LAMPU” value in assay [9] is reported as “very good (a very good herbicidal activity is given at values of at least 85)”. Also, the “herbicidal activity against VIOAR” value in assay [10] was “very good (a very good herbicidal activity is given at values of at least 85)”.

Regarding `Nc1nc(Nc2c(F)c(F)c(F)c(F)c2F)nc(N2CCCCC2)n1` [Example 5], the “herbicidal activity against AMARE” value in [1] (1.000 kg/ha) is “very good (a very good herbicidal activity is given at values of at least 85)”. Besides, in [2] (1.000 kg/ha), the “herbicidal activity against ALOMY” value is given as “very good (a very good herbicidal activity is given at values of at least 85)”. Moreover, the “herbicidal activity against ECHCG” value in [3] (1.000 kg/ha) is reported as “very good (a very good herbicidal activity is given at values of at least 85)”. Further, the “herbicidal activity against SETFA” value in assay [11] (1.000 kg/ha) is given as “very good (a very good herbicidal activity is given at values of at least 85)”. In assay [6] (1.000 kg/ha), the “herbicidal activity against APESV” value is “very good (a very good herbicidal activity is given at values of at least 85)”. Further, in assay [12] (1.000 kg/ha), the pest or weed control at 1000 g/ha was at least 85%.

Consider `Nc1nc(Nc2c(F)c(F)c(F)c(F)c2F)nc(N2CCC2)n1` [Example 33], for which the “herbicidal activity against AMARE” value in assay [1] (0.500 kg/ha) is recorded as “very good (a very good herbicidal activity is given at values of at least 85)”. In assay [13] (0.500 kg/ha), the “herbicidal activity against SETFA” value was “very good (a very good herbicidal activity is given at values of at least 85)”. For the same compound, the “herbicidal activity against ECHCG” value in assay [3] (0.500 kg/ha) and in [14] (0.500 kg/ha) was “very good (a very good herbicidal activity is given at values of at least 85)” throughout. Besides, the pest or weed control at 500 g/ha in assay [12] was at least 85%. The “herbicidal activity against ABUTH” value in assay [15] and in assay [16] was “very good (a very good herbicidal activity is given at values of at least 85)” throughout.

`CON(C)c1nc(N)nc(Nc2c(F)c(F)cc(F)c2F)n1` [Example 28]: in assay [1] (0.500 kg/ha), the “herbicidal activity against AMARE” value is recorded as “very good (a very good herbicidal activity is given at values of at least 85)”. Moreover, the “herbicidal activity against SETFA” value in assay [13] (0.500 kg/ha) and in [11] (0.500 kg/ha) was “very good (a very good herbicidal activity is given at values of at least 85)” in each case. Further, the “herbicidal activity against ALOMY” value in [2] (0.500 kg/ha) is on record as “very good (a very good herbicidal activity is given at values of at least 85)”. In addition, in [6] (0.500 kg/ha), the “herbicidal activity against APESV” value is “very good (a very good herbicidal activity is given at values of at least 85)”. Further, the pest or weed control at 500 g/ha in assay [12] was at least 85%. In addition, the “herbicidal activity against ABUTH” value in assay [15] and in assay [16] was “very good (a very good herbicidal activity is given at values of at least 85)” each time.

As for `Nc1nc(Nc2c(F)c(F)c(F)c(F)c2F)nc(OCC(F)(F)F)n1` [Example 3], the “herbicidal activity against AMARE” value in assay [1] (1.000 kg/ha) is “very good (a very good herbicidal activity is given at values of at least 85)”. Moreover, the “herbicidal activity against STEME” value in assay [17] is on record as “very good (a very good herbicidal activity is given at values of at least 85)”. Besides, in assay [13] (1.000 kg/ha), the “herbicidal activity against SETFA” value was “very good (a very good herbicidal activity is given at values of at least 85)”. In addition, the “herbicidal activity against SETVI” value in assay [4] is listed as “very good (a very good herbicidal activity is given at values of at least 85)”. For the same compound, in assay [14] (1.000 kg/ha), the “herbicidal activity against ECHCG” value is reported as “very good (a very good herbicidal activity is given at values of at least 85)”. In addition, the “herbicidal activity against VIOAR” value in assay [18] is given as “very good (a very good herbicidal activity is given at values of at least 85)”.

As for `Nc1nc(Nc2c(F)c(F)cc(F)c2F)nc(N2CCC2)n1` [Example 34], the “herbicidal activity against AMARE” value in [1] (0.500 kg/ha) is listed as “very good (a very good herbicidal activity is given at values of at least 85)”. Besides, the “herbicidal activity against SETFA” value in assay [13] (0.500 kg/ha) is reported as “very good (a very good herbicidal activity is given at values of at least 85)”. Also, the “herbicidal activity against ECHCG” value in assay [3] (0.500 kg/ha) and in [14] (0.500 kg/ha) was “very good (a very good herbicidal activity is given at values of at least 85)” each time. Also, in assay [12], the pest or weed control at 500 g/ha is at least 85%. The “herbicidal activity against ABUTH” value in assay [15] and in assay [16] was “very good (a very good herbicidal activity is given at values of at least 85)” throughout.

`CON(C)c1nc(N)nc(Nc2c(F)c(F)c(F)c(F)c2F)n1` [Example 27]: in [1] (0.500 kg/ha), the “herbicidal activity against AMARE” value is “very good (a very good herbicidal activity is given at values of at least 85)”. The “herbicidal activity against SETFA” value in [13] (0.500 kg/ha) and in assay [11] (0.500 kg/ha) was “very good (a very good herbicidal activity is given at values of at least 85)” in each case. In addition, the “herbicidal activity against ALOMY” value in assay [2] (0.500 kg/ha) is on record as “very good (a very good herbicidal activity is given at values of at least 85)”. Moreover, in assay [6] (0.500 kg/ha), the “herbicidal activity against APESV” value is listed as “very good (a very good herbicidal activity is given at values of at least 85)”. In addition, the pest or weed control at 500 g/ha in [12] is at least 85%. Moreover, the “herbicidal activity against ABUTH” value in assay [15] and in assay [16] was “very good (a very good herbicidal activity is given at values of at least 85)” throughout.

Consider `CC1CCC(C)N1c1nc(N)nc(Nc2c(F)c(F)cc(F)c2F)n1` (stereo not shown) [Example 18], for which the “herbicidal activity against AMARE” value in assay [1] (0.500 kg/ha) was “very good (a very good herbicidal activity is given at values of at least 85)”. Moreover, the “herbicidal activity against ECHCG” value in assay [14] (0.500 kg/ha) is given as “very good (a very good herbicidal activity is given at values of at least 85)”. Further, the “herbicidal activity against APESV” value in [6] (0.500 kg/ha) is “very good (a very good herbicidal activity is given at values of at least 85)”.
